Data published in patent US8673892B2, “Phenyl bicyclic methyl azetidine derivatives as sphingosine-1 phosphate receptors modulators” (Allergan, Inc., priority 2011, dated 2014).

Target: T1, human S1P1 receptor (Homo sapiens, UniProt P21453)
T1 construct: expressed in transfected cells; membranes used
Assay: GTP γ35S binding assay for S1P1 activity
Assay type: biochemical
Details: membranes of cells stably expressing the S1P1 receptor; agonist-induced GTP γ35S binding; read-out: EC50 at the S1P1 receptor from GTP γ35S
Method: Compounds were synthesized and tested for S1P1 activity using the GTP γ^35S binding assay. These compounds may be assessed for their ability to activate or block activation of the human S1P1 receptor in cells stably expressing the S1P1 receptor.
GTP γ^35S binding was measured in the medium containing (mM) HEPES 25, pH 7.4, MgCl2 10, NaCl 100, dithitothreitol 0.5, digitonin 0.003%, 0.2 nM GTP γ^35S, and 5 μg membrane protein in a volume of 150 μl. Test compounds were included in the concentration range from 0.08 to 5,000 nM unless indicated otherwise. Membranes were incubated with 100 μM 5′-adenylylimmidodiphosphate for 30 min, and subsequently with 10 μM GDP for 10 min on ice. Drug solutions and membrane were mixed, and then reactions were initiated by adding GTP γ^35S and continued for 30 min at 25° C. Reaction mixtures were filtered over Whatman GF/B filters under vacuum, and washed three times with 3 mL of ice-cold buffer (HEPES 25, pH7.4, MgCl2 10 and NaCl 100). Filters were dried and mixed with scintillant, and counted for ^35S activity using a β-counter. Agonist-induced GTP γ^35S binding was obtained by subtracting that in the absence of agonist. Binding data were analyzed using a non-linear regression method. In case of antagonist assay, the reaction mixture contained 10 nM […] in the presence of test antagonist at concentrations ranging from 0.08 to 5000 nM.

T1 sequence (P21453 whole entry): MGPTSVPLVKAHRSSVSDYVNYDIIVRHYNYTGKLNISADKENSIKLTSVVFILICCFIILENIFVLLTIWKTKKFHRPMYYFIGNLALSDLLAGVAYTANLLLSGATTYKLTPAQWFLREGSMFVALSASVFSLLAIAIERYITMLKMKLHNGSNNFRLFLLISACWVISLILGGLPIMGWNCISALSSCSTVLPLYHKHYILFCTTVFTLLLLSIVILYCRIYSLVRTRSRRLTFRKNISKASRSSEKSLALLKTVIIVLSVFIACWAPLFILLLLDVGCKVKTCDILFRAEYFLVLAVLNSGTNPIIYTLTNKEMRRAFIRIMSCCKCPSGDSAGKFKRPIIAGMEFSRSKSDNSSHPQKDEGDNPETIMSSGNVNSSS

## CCCCCCc1ccc(-c2ccc(CN3CC(C(=O)O)C3)c3ncccc23)cc1 [Compound 1, 1-{[5-(4-hexylphenyl)quinolin-8-yl]methyl}azetidine-3-carboxylic acid]
  EC50: 1.55 µM
